Earlier results in patent US20070148240A1, “Oral formulation containing itraconazole and methods for manufacturing and using the same” (priority 2005, published 2007).

Assays:
[1] = not given; remark: listed apart in the source

Compound | antifungal activity in vitro (fungi) | binding rate with plasma proteins (plasma proteins) [%] | solubility in acids (in acids such as hydrochloric acid, acetic acid, phosphoric acid and methylsulfonic acid) | solubility in ethanol (in ethanol) | solubility in methylene chloride (in methylene chloride) | solubility in water (in water) | time to reach peak concentration in plasma ([1]; after being taken by patients) [h] | concentration in blood relative to that in plasma ([1]; human, in vivo) | itraconazole in original form excreted in feces ([1]; human, in vivo) | itraconazole in original form secreted in urine ([1]; human, in vivo) [%] | plasma half life ([1]; human, in vivo) [h] | itraconazole metabolites secreted in urine ([1]; within a week after uptake of the drug)
hydroxy-itraconazole | has been demonstrated in vitro to have antifungal activity | – | – | – | – | – | – | – | – | – | – | –
CCC(C)n1ncn(-c2ccc(N3CCN(c4ccc(OC[C@H]5CO[C@](Cn6cncn6)(c6ccc(Cl)cc6Cl)O5)cc4)CC3)cc2)c1=O (mixture of isomers) [itraconazole, (±)-cis-4-[4-[4-[4-[[2-(2,4-dichlorophenyl)-2-(1H-1,2,4-triazol-1-ylmethyl)-1,3-dioxolan-4-yl]methoxy]phenyl]-1-piperazinyl]phenyl]-2,4-dihydro-2-(1-methylpropyl)-3H-1,2,4-triazol-3-one] | – | 99.8 | easily soluble | low | easily soluble | less than 1 μg/ml | 3 to 4 | about 60% | 3-18% | ≤ 0.03 | 24 to 36 | About 35%
